Source: US20250114460A1, “NOVEL PLK1 DEGRADATION INDUCING COMPOUND” (UPPTHERA, INC., priority 2021, published 2025)

Molecular target: T1, PLK1 (Homo sapiens, UniProt P53350)
T1 construct: endogenous in cells; host or cells: HeLa LgBit (Plk1-HiBit KI): HeLa stably expressing LgBit, with a CRISPR/Cas9 knock-in of HiBit at the endogenous PLK1 locus
Experiment: Luciferase assay for PLK1 in HeLa LgBit (Plk1-HiBit KI) cell line
Assay type: cell-based
Conditions: 300 nM compound, luminescence after 9 hours
Method: 2. Luciferase Assay for PLK1
(1) Preparation and Culture of HeLa LgBit (Plk1-HiBit KI) Cell Line
A HeLa cell line in which the LgBit vector was transfected and expressed stably was prepared. Then, after constructing gRNA and donor to express the HiBit amino acid sequence behind the C-terminal of the Plk1 gene, which was inherent in the cell, it was inserted into the cell together with a vector capable of expressing CRISPR/Cas9. Only the cells in which the insertion was completed and knock-in had progressed were selected, sub-cultured and used.
(2) Treatment of Compounds of the Present Invention and Method of Luciferase Assay
In the case of HeLa LgBit (Plk1-HiBit KI), the compounds were treated after being released after thymidine block, and the process was as follows. Thymidine (Sigma-Aldrich Cat. No. T9250-5G) was completely dissolved in DW and used in the experiment. For thymidine block, the products were treated with 2 mM of thymidine and then incubated for 24 hours. For release and chemical treatment, the medium was suctioned and washed with 1×PBS. TrypLE™ was added and incubated in 37° C. CO2 incubator for 5 min. Cells neutralized by adding complete media were counted through a counter. For each well of a 96-well culture plate (SPL), 3.3×10^4 cells and a total medium volume of 150 μL were seeded and incubated in a CO2 incubator.
Each cell line was incubated in a CO2 incubator for 18 hours, and Endurazine was added to each well to make up 4% of the total volume. After adding the compound of the present invention in a 96-well white plate (SPL) to a concentration of 300 nM, the wavelength of the plate reader (BMG Labtech, CLARIOstar Plus) was set to […], and then the luminescence was tracked in real time.
In Table 2, Activity represents the ratio of the luminescense value of each Exemplary Compound treatment group to DMSO treatment group (+++: <0.3, ++<0.6, +<0.7).

T1 sequence (P53350 whole entry): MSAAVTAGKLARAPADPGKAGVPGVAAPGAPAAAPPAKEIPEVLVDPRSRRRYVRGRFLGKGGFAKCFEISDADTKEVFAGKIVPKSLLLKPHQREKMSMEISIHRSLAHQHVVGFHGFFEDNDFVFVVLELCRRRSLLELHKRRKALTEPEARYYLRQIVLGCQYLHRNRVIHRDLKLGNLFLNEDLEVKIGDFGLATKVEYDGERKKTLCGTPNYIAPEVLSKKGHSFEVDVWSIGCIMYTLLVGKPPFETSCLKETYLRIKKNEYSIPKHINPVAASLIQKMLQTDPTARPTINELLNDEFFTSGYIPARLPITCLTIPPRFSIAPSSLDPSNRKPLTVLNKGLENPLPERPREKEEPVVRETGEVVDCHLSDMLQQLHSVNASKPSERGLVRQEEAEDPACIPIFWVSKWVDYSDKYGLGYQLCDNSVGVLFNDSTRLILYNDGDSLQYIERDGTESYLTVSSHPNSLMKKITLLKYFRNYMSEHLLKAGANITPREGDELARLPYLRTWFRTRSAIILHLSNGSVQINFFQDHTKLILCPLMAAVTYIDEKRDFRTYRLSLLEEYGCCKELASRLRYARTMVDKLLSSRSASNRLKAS

| SMILES | Activity: ratio of the luminescense value of each Exemplary Compound treatment group to DMSO treatment group |
| --- | --- |
| COc1cc(C(=O)NC2CCN(CC3CCN(c4cccc5c4C(=O)N(C4CCC(=O)NC4=O)C5=O)C3)CC2)ccc1Nc1ncc2c(n1)N(C1CCCC1)CC(F)(F)C(=O)N2C (centres unmarked) [Compound 46, 4-((9-cyclopentyl-7,7-difluoro-5-methyl-6-oxo-6,7,8,9-tetrahydro-5H-pyrimido[4,5-b][1,4]diazepin-2-yl)amino)-N-(1-((1-(2-(2,6-dioxopiperidin-3-yl)-1,3-dioxoisoindolin-4-yl)pyrrolidin-3-yl)methyl)piperidin-4-yl)-3-methoxybenzamide] | ++ (++<0.6) |
| COc1cc(C(=O)NC2CCN(C[C@@H]3CCN(c4cccc5c4C(=O)N(C4CCC(=O)NC4=O)C5=O)C3)CC2)ccc1Nc1ncc2c(n1)N(C1CCCC1)CC(F)(F)C(=O)N2C (stereo partly drawn) [Compound 47, 4-((9-cyclopentyl-7,7-difluoro-5-methyl-6-oxo-6,7,8,9-tetrahydro-5H-pyrimido[4,5-b][1,4]diazepin-2-yl)amino)-N-(1-(((3S)-1-(2-(2,6-dioxopiperidin-3-yl)-1,3-dioxoisoindolin-4-yl)pyrrolidin-3-yl)methyl)piperidin-4-yl)-3-methoxybenzamide] | ++ (++<0.6) |
| COc1cc(C(=O)NC2CCN(C[C@@H]3CCN(c4ccc5c(c4)C(=O)N(C4CCC(=O)NC4=O)C5=O)C3)CC2)ccc1Nc1ncc2c(n1)N(C1CCCC1)CC(F)(F)C(=O)N2C (stereo partly drawn) [Compound 48, 4-((9-cyclopentyl-7,7-difluoro-5-methyl-6-oxo-6,7,8,9-tetrahydro-5H-pyrimido[4,5-b][1,4]diazepin-2-yl)amino)-N-(1-(((3S)-1-(2-(2,6-dioxopiperidin-3-yl)-1,3-dioxoisoindolin-5-yl)pyrrolidin-3-yl)methyl)piperidin-4-yl)-3-methoxybenzamide] | + (+<0.7) |
| COc1cc(C(=O)NC2CCN(CCCC3CCCN(c4cccc5c4C(=O)N(C4CCC(=O)NC4=O)C5=O)C3)CC2)ccc1Nc1ncc2c(n1)N(C1CCCC1)CC(F)(F)C(=O)N2C (centres unmarked) [Compound 57, 4-((9-cyclopentyl-7,7-difluoro-5-methyl-6-oxo-6,7,8,9-tetrahydro-5H-pyrimido[4,5-b][1,4]diazepin-2-yl)amino)-N-(1-(3-(1-(2-(2,6-dioxopiperidin-3-yl)-1,3-dioxoisoindolin-4-yl)piperidin-3-yl)propyl)piperidin-4-yl)-3-methoxybenzamide] | + (+<0.7) |
| COc1cc(C(=O)NC2CCN(C(=O)CCN3CCN(c4ccc5c(c4)CN(C4CCC(=O)NC4=O)C5=O)CC3)CC2)c(F)cc1Nc1ncc2c(n1)N(C1CCCC1)CC(F)(F)C(=O)N2C (centres unmarked) [Compound 61, 4-((9-cyclopentyl-7,7-difluoro-5-methyl-6-oxo-6,7,8,9-tetrahydro-5H-pyrimido[4,5-b][1,4]diazepin-2-yl)amino)-N-(1-(3-(4-(2-(2,6-dioxopiperidin-3-yl)-1-oxoisoindolin-5-yl)piperazin-1-yl)propanoyl)piperidin-4-yl)-2-fluoro-5-methoxybenzamide] | ++ (++<0.6) |
| COc1cc(C(=O)NC2CCN(C(=O)CCCN3CCN(c4cccc5c4C(=O)N(C4CCC(=O)NC4=O)C5=O)CC3)CC2)ccc1Nc1ncc2c(n1)N(C1CCCC1)CC(F)(F)C(=O)N2C (centres unmarked) [Compound 64, 4-((9-cyclopentyl-7,7-difluoro-5-methyl-6-oxo-6,7,8,9-tetrahydro-5H-pyrimido[4,5-b][1,4]diazepin-2-yl)amino)-N-(1-(4-(4-(2-(2,6-dioxopiperidin-3-yl)-1,3-dioxoisoindolin-4-yl)piperazin-1-yl)butanoyl)piperidin-4-yl)-3-methoxybenzamide] | ++ (++<0.6) |
| COc1cc(C(=O)NC2CCN(C(=O)CCCCN3CCN(c4cccc5c4C(=O)N(C4CCC(=O)NC4=O)C5=O)CC3)CC2)ccc1Nc1ncc2c(n1)N(C1CCCC1)CC(F)(F)C(=O)N2C (centres unmarked) [Compound 65, 4-((9-cyclopentyl-7,7-difluoro-5-methyl-6-oxo-6,7,8,9-tetrahydro-5H-pyrimido[4,5-b][1,4]diazepin-2-yl)amino)-N-(1-(5-(4-(2-(2,6-dioxopiperidin-3-yl)-1,3-dioxoisoindolin-4-yl)piperazin-1-yl)pentanoyl)piperidin-4-yl)-3-methoxybenzamide] | ++ (++<0.6) |
| COc1cc(C(=O)NC2CCN(C(=O)CCN3CCN(c4cccc5c4C(=O)N(C4CCC(=O)NC4=O)C5=O)CC3)CC2)ccc1Nc1ncc2c(n1)N(C1CC1)CC(F)(F)C(=O)N2C (centres unmarked) [Compound 67, 4-((9-cyclopropyl-7,7-difluoro-5-methyl-6-oxo-6,7,8,9-tetrahydro-5H-pyrimido[4,5-b][1,4]diazepin-2-yl)amino)-N-(1-(3-(4-(2-(2,6-dioxopiperidin-3-yl)-1,3-dioxoisoindolin-4-yl)piperazin-1-yl)propanoyl)piperidin-4-yl)-3-methoxybenzamide] | ++ (++<0.6) |
| CN1C(=O)C(F)(F)CN(C2CCCC2)c2nc(Nc3ccc(C(=O)NC4CCN(C(=O)CCN5CCN(c6cccc7c6C(=O)N(C6CCC(=O)NC6=O)C7=O)CC5)CC4)cc3OCCO)ncc21 (centres unmarked) [Compound 73, 4-((9-cyclopentyl-7,7-difluoro-5-methyl-6-oxo-6,7,8,9-tetrahydro-5H-pyrimido[4,5-b][1,4]diazepin-2-yl)amino)-N-(1-(3-(4-(2-(2,6-dioxopiperidin-3-yl)-1,3-dioxoisoindolin-4-yl)piperazin-1-yl)propanoyl)piperidin-4-yl)-3-(2-hydroxyethoxy)benzamide] | ++ (++<0.6) |
| CN1C(=O)C(F)(F)CN(C2CCCC2)c2nc(Nc3ccc(C(=O)NC4CCN(C(=O)CCN5CCN(c6cccc7c6C(=O)N(C6CCC(=O)NC6=O)C7=O)CC5)CC4)cc3C(F)(F)F)ncc21 (centres unmarked) [Compound 75, 4-((9-cyclopentyl-7,7-difluoro-5-methyl-6-oxo-6,7,8,9-tetrahydro-5H-pyrimido[4,5-b][1,4]diazepin-2-yl)amino)-N-(1-(3-(4-(2-(2,6-dioxopiperidin-3-yl)-1,3-dioxoisoindolin-4-yl)piperazin-1-yl)propanoyl)piperidin-4-yl)-3-(trifluoromethyl)benzamide] | ++ (++<0.6) |
| COc1cc(C(=O)NC2CCN(C(=O)COC3CN(c4cccc5c4C(=O)N(C4CCC(=O)NC4=O)C5=O)C3)CC2)ccc1Nc1ncc2c(n1)N(C1CCCC1)CC(F)(F)C(=O)N2C (centres unmarked) [Compound 80, 4-((9-cyclopentyl-7,7-difluoro-5-methyl-6-oxo-6,7,8,9-tetrahydro-5H-pyrimido[4,5-b][1,4]diazepin-2-yl)amino)-N-(1-(2-((1-(2-(2,6-dioxopiperidin-3-yl)-1,3-dioxoisoindolin-4-yl)azetidin-3-yl)oxy)acetyl)piperidin-4-yl)-3-methoxybenzamide] | ++ (++<0.6) |
| COc1cc(C(=O)N[C@H]2CCN(C(=O)CCN3CCN(c4ccc5c(c4)CN(C4CCC(=O)NC4=O)C5=O)CC3)C2)c(F)cc1Nc1ncc2c(n1)N(C1CCCC1)CC(F)(F)C(=O)N2C (stereo partly drawn) [Compound 84, 4-((9-cyclopentyl-7,7-difluoro-5-methyl-6-oxo-6,7,8,9-tetrahydro-5H-pyrimido[4,5-b][1,4]diazepin-2-yl)amino)-N-((3S)-1-(3-(4-(2-(2,6-dioxopiperidin-3-yl)-1-oxoisoindolin-5-yl)piperazin-1-yl)propanoyl)pyrrolidin-3-yl)-2-fluoro-5-methoxybenzamide] | ++ (++<0.6) |
| COc1cc(C(=O)N2CCN(CCCN3CCN(c4cccc5c4C(=O)N(C4CCC(=O)NC4=O)C5=O)CC3)CC2)ccc1Nc1ncc2c(n1)N(C1CCCC1)CC(F)(F)C(=O)N2C (centres unmarked) [Compound 87, 4-(4-(3-(4-(4-((9-cyclopentyl-7,7-difluoro-5-methyl-6-oxo-6,7,8,9-tetrahydro-5H-pyrimido[4,5-b][1,4]diazepin-2-yl)amino)-3-methoxybenzoyl)piperazin-1-yl)propyl)piperazin-1-yl)-2-(2,6-dioxopiperidin-3-yl)isoindoline-1,3-dione] | ++ (++<0.6) |
| COc1cc(C(=O)N2CCN(CCCCN3CCN(c4cccc5c4C(=O)N(C4CCC(=O)NC4=O)C5=O)CC3)CC2)ccc1Nc1ncc2c(n1)N(C1CCCC1)CC(F)(F)C(=O)N2C (centres unmarked) [Compound 88, 4-(4-(4-(4-(4-((9-cyclopentyl-7,7-difluoro-5-methyl-6-oxo-6,7,8,9-tetrahydro-5H-pyrimido[4,5-b][1,4]diazepin-2-yl)amino)-3-methoxybenzoyl)piperazin-1-yl)butyl)piperazin-1-yl)-2-(2,6-dioxopiperidin-3-yl)isoindoline-1,3-dione] | ++ (++<0.6) |
